Laboratory results reported in patent US20260262643A1, “HERBICIDAL BENZOXAZINES” (FMC CORPORATION, priority 2022, published 2026).

Assays:
ragweed [1] = test: Test C preemergence; format: in vivo, Ambrosia artemisiifolia; conditions: 0 to 100 scale (0 no effect, 100 complete control); for Ragweed plant response rating: preemergence
In short: (§1)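 Visual injury score, 0–100 (100 = complete control), taken 10 days after treatment relative to untreated controls. Pre: directed spray onto soil over sown seeds. Post: foliar spray at one- to two-leaf stage, 2–10 cm. Solvent/surfactant formulation; loam–sand soil; greenhouse.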

kochia [2] = test: Test C postemergence; format: in vivo, Bassia scoparia; conditions: 10 days
In short: as §1

barnyardgrass [3] = test: Test D flooded paddy test; format: in vivo, Echinochloa crus-galli; conditions: 250 g ai/ha, applied to paddy water, visual rating after 13 to 14 days, scale 0 to 100 (0 no effect, 100 complete control)
In short: (§2)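 Plants grown to the 2-leaf stage; pots flooded to 3 cm above soil at treatment and held at that depth throughout. Test compounds applied directly to the paddy water. After 13 to 14 days in a greenhouse, response was rated visually versus controls on a 0 (no effect) to 100 (complete control) scale.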

rice = test: Test D flooded paddy test; format: in vivo, Oryza sativa; conditions: 250 g ai/ha, applied to paddy water, visual rating after 13 to 14 days, scale 0 to 100 (0 no effect, 100 complete control)
In short: as §2

blackgrass [4] = test: Test C preemergence; format: in vivo, Alopecurus myosuroides; conditions: 0 to 100 scale (0 no effect, 100 complete control); for Blackgrass plant response rating: preemergence
In short: as §1

kochia [5] = test: Test C preemergence; format: in vivo, Bassia scoparia; conditions: 0 to 100 scale (0 no effect, 100 complete control); for Kochia plant response rating: preemergence
In short: as §1

blackgrass [6] = test: Test C postemergence; format: in vivo, Alopecurus myosuroides; conditions: 10 days
In short: as §1

ragweed [7] = test: Test C postemergence; format: in vivo, Ambrosia artemisiifolia; conditions: 10 days
In short: as §1

sedge, umbrella = test: Test D flooded paddy test; format: in vivo, Cyperus difformis; conditions: 250 g ai/ha, applied to paddy water, visual rating after 13 to 14 days, scale 0 to 100 (0 no effect, 100 complete control)
In short: as §2

barnyardgrass [8] = test: Test C postemergence; format: in vivo, Echinochloa crusgalli; conditions: 10 days
In short: as §1

green foxtail [9] = test: Test C preemergence; format: in vivo, Setaria viridis; conditions: 0 to 100 scale (0 no effect, 100 complete control); for Foxtail, Green plant response rating: preemergence
In short: as §1

oat, wild [10] = test: Test C preemergence; format: in vivo, Avena fatua; conditions: 0 to 100 scale (0 no effect, 100 complete control); for Oat, Wild plant response rating: preemergence
In short: as §1

ryegrass, Italian [11] = test: Test C preemergence; format: in vivo, Lolium multiflorum; conditions: 0 to 100 scale (0 no effect, 100 complete control); for Ryegrass, Italian plant response rating: preemergence
In short: as §1

pigweed, palmer [12] = test: Test C postemergence; format: in vivo, Amaranthus palmeri; conditions: 10 days
In short: as §1

barnyardgrass [13] = test: Test C preemergence; format: in vivo, Echinochloa crusgalli; conditions: 0 to 100 scale (0 no effect, 100 complete control); for Barnyardgrass plant response rating: preemergence
In short: as §1

wheat [14] = test: Test C postemergence; format: in vivo, Triticum aestivum; conditions: 10 days
In short: as §1

pigweed, palmer [15] = test: Test C preemergence; format: in vivo, Amaranthus palmeri; conditions: 0 to 100 scale (0 no effect, 100 complete control); for Pigweed, Palmer plant response rating: preemergence
In short: as §1

soybean [16] = test: Test C postemergence; format: in vivo, Glycine max; conditions: 10 days
In short: as §1

wheat [17] = test: Test C preemergence; format: in vivo, Triticum aestivum; conditions: 0 to 100 scale (0 no effect, 100 complete control); for Wheat plant response rating: preemergence
In short: as §1

ducksalad = test: Test D flooded paddy test; format: in vivo, Heteranthera limosa; conditions: 250 g ai/ha, applied to paddy water, visual rating after 13 to 14 days, scale 0 to 100 (0 no effect, 100 complete control)
In short: as §2

green foxtail [18] = test: Test C postemergence; format: in vivo, Setaria viridis; conditions: 10 days
In short: as §1

galium = test: Test C postemergence; format: in vivo, Galium aparine; conditions: 10 days
In short: as §1

corn [19] = test: Test C preemergence; format: in vivo, Zea mays; conditions: 0 to 100 scale (0 no effect, 100 complete control); for Corn plant response rating: preemergence
In short: as §1

oat, wild [20] = test: Test C postemergence; format: in vivo, Avena fatua; conditions: 10 days
In short: as §1

soybean [21] = test: Test C preemergence; format: in vivo, Glycine max; conditions: 0 to 100 scale (0 no effect, 100 complete control); for Soybean plant response rating: preemergence
In short: as §1

ryegrass, Italian [22] = test: Test C postemergence; format: in vivo, Lolium multiflorum; conditions: 10 days
In short: as §1

corn [23] = test: Test C postemergence; format: in vivo, Zea mays; conditions: 10 days
In short: as §1

horseweed = test: Test C postemergence; format: in vivo, Erigeron canadensis; conditions: 10 days
In short: as §1

[24] = Preemergence, 500 g ai/ha, visual rating after 10 days
[25] = 125 g ai/ha, postemergence, 0 to 100 scale, 0 no effect, 100 complete control
[26] = Postemergence, 500 g ai/ha, visual 0 to 100 scale (0 no effect, 100 complete control)
[27] = 500 g ai/ha, postemergence, 0 to 100 scale (0 no effect, 100 complete control)

C[C@H]1CN(C(=O)c2cccc(-n3cnc(C(C)(C)O)n3)c2)c2cccc(Cl)c2O1 [Compound 169]
Plant response rating, Ragweed (ragweed [1]; [24]): 100 | Ragweed plant response rating (ragweed [1]; Test C, 125 g ai/ha): 50 | Plant response rating, Kochia (kochia [2]; [25]): 90 | Plant response rating, Kochia (kochia [2]; [26]): 90 | Plant response rating, Barnyardgrass (Flood) (barnyardgrass [3]): 0 | Plant response rating, Rice (Flood) (rice): 0 | Plant response rating, Blackgrass (blackgrass [4]; [24]): 90 | Blackgrass plant response rating (blackgrass [4]; Test C, 125 g ai/ha): 90 | Plant response rating, Kochia (kochia [5]; [24]): 100 | Kochia plant response rating (kochia [5]; Test C, 125 g ai/ha): 100 | Plant response rating, Blackgrass (blackgrass [6]; [25]): 90 | Plant response rating, Blackgrass (blackgrass [6]; [26]): 100 | Plant response rating, Ragweed (ragweed [7]; [25]): 50 | Plant response rating, Ragweed (ragweed [7]; [26]): 90 | Plant response rating, Sedge, Umbrella (Flood) (sedge, umbrella): 85 | Plant response rating, Barnyardgrass (barnyardgrass [8]; [25]): 20 | Plant response rating, Barnyardgrass (barnyardgrass [8]; [26]): 70 | Plant response rating, Foxtail, Green (green foxtail [9]; [24]): 100 | Foxtail, Green plant response rating (green foxtail [9]; Test C, 125 g ai/ha): 100 | Plant response rating, Oat, Wild (oat, wild [10]; [24]): 90 | Oat, Wild plant response rating (oat, wild [10]; Test C, 125 g ai/ha): 80 | Plant response rating, Ryegrass, Italian (ryegrass, Italian [11]; [24]): 100 | Ryegrass, Italian plant response rating (ryegrass, Italian [11]; Test C, 125 g ai/ha): 90 | Plant response rating, Pigweed, Palmer (pigweed, palmer [12]; [25]): 70 | Plant response rating, Pigweed, Palmer (pigweed, palmer [12]; [26]): 90 | Barnyardgrass plant response rating (barnyardgrass [13]; 125 g ai/ha): 80 | Plant response rating, Barnyardgrass (barnyardgrass [13]; [24]): 100 | Plant response rating, Wheat (wheat [14]; [25]): 6 | Plant response rating, Wheat (wheat [14]; [26]): 90 | Plant response rating, Pigweed, Palmer (pigweed, palmer [15]; [24]): 100 | Pigweed, Palmer plant response rating (pigweed, palmer [15]; Test C, 125 g ai/ha): 100 | Plant response rating, Soybean (soybean [16]; [25]): 100 | Plant response rating, Soybean (soybean [16]; [26]): 100 | Plant response rating, Wheat (wheat [17]; [24]): 90 | Wheat plant response rating (wheat [17]; Test C, 125 g ai/ha): 30 | Plant response rating, Ducksalad (Flood) (ducksalad): 90 | Plant response rating, Foxtail, Green (green foxtail [18]; [25]): 30 | Plant response rating, Foxtail, Green (green foxtail [18]; [26]): 90 | Plant response rating, Galium (galium; [25]): 100 | Plant response rating, Galium (galium; [26]): 100 | Plant response rating, Corn (corn [19]; [24]): 40 | Corn plant response rating (corn [19]; Test C, 125 g ai/ha): 0 | Plant response rating, Oat, Wild (oat, wild [20]; [25]): 80 | Plant response rating, Oat, Wild (oat, wild [20]; [26]): 90 | Plant response rating, Soybean (soybean [21]; [24]): 90 | Soybean plant response rating (soybean [21]; Test C, 125 g ai/ha): 90 | Plant response rating, Ryegrass, Italian (ryegrass, Italian [22]; [25]): 60 | Plant response rating, Ryegrass, Italian (ryegrass, Italian [22]; [26]): 100 | Plant response rating, Corn (corn [23]; [25]): 80 | Plant response rating, Corn (corn [23]; [26]): 90 | Plant response rating, Horseweed (horseweed; [25]): 0 | Plant response rating, Horseweed (horseweed; [26]): 40

Cc1ccc(-n2cnc(C(C)C)n2)cc1C(=O)N1CC(C(F)(F)F)Oc2c(Cl)cccc21 (single isomer, unassigned) [Compound 291]
Ragweed plant response rating (ragweed [1]; 500 g ai/ha): 60 | Ragweed plant response rating (ragweed [1]; Test C, 125 g ai/ha): 40 | Plant response rating, Kochia (kochia [2]; [25]): 90 | Plant response rating, Kochia (kochia [2]; [27]): 100 | Plant response rating, Barnyardgrass (Flood) (barnyardgrass [3]): 40 | Plant response rating, Rice (Flood) (rice): 0 | Blackgrass plant response rating (blackgrass [4]; 500 g ai/ha): 70 | Blackgrass plant response rating (blackgrass [4]; Test C, 125 g ai/ha): 50 | Kochia plant response rating (kochia [5]; 500 g ai/ha): 100 | Kochia plant response rating (kochia [5]; Test C, 125 g ai/ha): 80 | Plant response rating, Blackgrass (blackgrass [6]; [25]): 0 | Plant response rating, Blackgrass (blackgrass [6]; [27]): 50 | Plant response rating, Ragweed (ragweed [7]; [25]): 70 | Plant response rating, Ragweed (ragweed [7]; [27]): 80 | Plant response rating, Sedge, Umbrella (Flood) (sedge, umbrella): 95 | Plant response rating, Barnyardgrass (barnyardgrass [8]; [25]): 30 | Plant response rating, Barnyardgrass (barnyardgrass [8]; [27]): 90 | Foxtail, Green plant response rating (green foxtail [9]; 500 g ai/ha): 100 | Foxtail, Green plant response rating (green foxtail [9]; Test C, 125 g ai/ha): 100 | Oat, Wild plant response rating (oat, wild [10]; 500 g ai/ha): 80 | Oat, Wild plant response rating (oat, wild [10]; Test C, 125 g ai/ha): 60 | Ryegrass, Italian plant response rating (ryegrass, Italian [11]; 500 g ai/ha): 100 | Ryegrass, Italian plant response rating (ryegrass, Italian [11]; Test C, 125 g ai/ha): 90 | Plant response rating, Pigweed, Palmer (pigweed, palmer [12]; [25]): 100 | Plant response rating, Pigweed, Palmer (pigweed, palmer [12]; [27]): 100 | Barnyardgrass plant response rating (barnyardgrass [13]; 500 g ai/ha): 100 | Barnyardgrass plant response rating (barnyardgrass [13]; Test C, 125 g ai/ha): 100 | Plant response rating, Wheat (wheat [14]; [25]): 30 | Plant response rating, Wheat (wheat [14]; [27]): 70 | Pigweed, Palmer plant response rating (pigweed, palmer [15]; 500 g ai/ha): 100 | Pigweed, Palmer plant response rating (pigweed, palmer [15]; Test C, 125 g ai/ha): 100 | Plant response rating, Soybean (soybean [16]; [25]): 90 | Plant response rating, Soybean (soybean [16]; [27]): 100 | Wheat plant response rating (wheat [17]; 500 g ai/ha): 50 | Wheat plant response rating (wheat [17]; Test C, 125 g ai/ha): 30 | Plant response rating, Ducksalad (Flood) (ducksalad): 45 | Plant response rating, Foxtail, Green (green foxtail [18]; [25]): 30 | Plant response rating, Foxtail, Green (green foxtail [18]; [27]): 90 | Plant response rating, Galium (galium; [25]): 100 | Plant response rating, Galium (galium; [27]): 100 | Corn plant response rating (corn [19]; 500 g ai/ha): 50 | Corn plant response rating (corn [19]; Test C, 125 g ai/ha): 30 | Plant response rating, Oat, Wild (oat, wild [20]; [25]): 50 | Plant response rating, Oat, Wild (oat, wild [20]; [27]): 80 | Soybean plant response rating (soybean [21]; 500 g ai/ha): 100 | Soybean plant response rating (soybean [21]; Test C, 125 g ai/ha): 90 | Plant response rating, Ryegrass, Italian (ryegrass, Italian [22]; [25]): 70 | Plant response rating, Ryegrass, Italian (ryegrass, Italian [22]; [27]): 80 | Plant response rating, Corn (corn [23]; [25]): 20 | Plant response rating, Corn (corn [23]; [27]): 80 | Plant response rating, Horseweed (horseweed; [25]): 60 | Plant response rating, Horseweed (horseweed; [27]): 60
